Patent US11433053B2, “LSD1 inhibitor and preparation method and application thereof” (CSPC ZHONGQI PHARMACEUTICAL TECHNOLOGY (SHIJIAZHUANG) CO., …, priority 2017, dated 2022)

Columns and labels:
[1] = tested on: H1417 cells; experiment: Cell proliferation inhibitory activity on H1417 cells (CellTiter-Glo, 10 days); format: cell-based, human; details: Homo sapiens; for IC50: NCI-H1417, 240 h, H1417 cells, 10 days incubation; for Emax: NCI-H1417, H1417 cells, highest percentage inhibition of cell viability, read-out: Maximum inhibition percentage (%)
Protocol: Experimental purposes: To test the proliferation inhibitory activities of the test compounds on H1417 cells.
Experimental materials: RPMI 1640 medium, fetal bovine serum, Promega CellTiter-Glo reagent. The H1417 cell line purchased from ATCC. Envision Multi-Label Analyzer (PerkinElmer).
Experimental method: H1417 cells were seeded in a black 384-well plate, 1000 cells per well in […] of cell suspension. The test compounds were diluted 3-fold with Epmotion to the 10th concentration i.e, the compounds were diluted from 10 mmol to […], and a double duplicate well experiment was set. 198 μL medium was added to the middle plate, according to the corresponding position, 2 μL gradient diluted compounds were added to the middle plate. The mixture was mixed evenly and transferred 20 μL per well to the cell plates. The cell plates were incubated in a carbon dioxide incubator for 10 days. 25 μL of Promega CellTiter-Glo reagent per well was added to the cell plate and the mixture was incubated for 10 minutes at room temperature to stabilize the luminescence signal. Readings were performed by PerkinElmer Envision multi-label analyzer.
Data analysis: The original data was converted to the inhibition rate by the equation (Max-Ratio)/(Max-Min)*100%, and the value of IC50 can be obtained by curve fitting with four parameters. (Model 205 in XLFIT5, iDBS)
The growth inhibitory activities of the test compounds on H1417 cells were classified as + for IC50≤100 nM; ++ for IC50>100 nM and ≤500 nM; +++ for IC50>500 nM and ≤1000 nM; the highest percentage inhibition of cell viability was classified as: […]; 90%>B≥70%; 70%>C≥50%.

[2] = molecular target: human LSD1 (Homo sapiens (Human), UniProt O60341); experiment: Evaluation of enzyme activity: LSD1 fluorescence coupling enzyme assay (HRP/Amplex Red); format: biochemical; details: human LSD1, histone H3(1-21)K4me2 peptide 10 μM, 30 min pre-incubation
Protocol: The purpose of this test is to test the in vitro inhibitory activities of the compounds against LSD1. The enzyme used in this experiment was human LSD1, and the standard substrate was histone H3(1-21)K4me2 peptide (10 μM). HCI-2509 (SP2509) was used as reference compound, and the fluorescence coupling enzyme assay was employed. The production of FAD-dependent H2O2 as a result of demethylase activity of LSD1 was measured by coupling with HRP and Amplex Red. Compounds as well as control compound HCl-2509 were tested in 10-dose IC50 mode with a 3-fold serial dilution in duplicate starting at 10 μm. All compounds were pre-incubated 30 mins with enzyme before added substrate to start reaction. Fluorescence measurement: Ex/Em=535/590 by EnVision.
The test compound's inhibitory activities against LSD11 was classified as: + for IC50≤50 nM; ++ for IC50>50 nM and ≤100 nM; +++ for IC50>100 nM and ≤500 nM, and the results are shown in Table 1.

Structure (SMILES)	IC50 [1]	Emax [1]	IC50 [2]
N#CC1(CN[C@H]2CC2c2ccccc2)CC1 (some centres unmarked) [Example 1]	≤ 100 nM	90 to 100%	100 to 500 nM
NCC1(CN[C@H]2CC2c2ccccc2)CC1 (some centres unmarked) [Example 4]	≤ 100 nM	50 to 70%	≤ 50 nM
CCNCC1(CN[C@H]2CC2c2ccccc2)CC1 (some centres unmarked) [Example 6]	500 to 1000 nM	50 to 70%	100 to 500 nM
N#CC1(CN[C@H]2CC2c2ccccc2)CCC1 (some centres unmarked) [Example 8]	100 to 500 nM	50 to 70%	50 to 100 nM
NCC1(CN[C@H]2CC2c2ccccc2)CCC1 (some centres unmarked) [Example 9]	≤ 100 nM	70 to 90%	≤ 50 nM
Clc1ccc(-c2noc(C3(CN[C@H]4CC4c4ccccc4)CC3)n2)cc1 (some centres unmarked) [Example 69]	500 to 1000 nM	50 to 70%	≤ 50 nM
Clc1ccc(-c2nnc(C3(CN[C@H]4CC4c4ccccc4)CC3)o2)cc1 (some centres unmarked) [Example 70]	100 to 500 nM	90 to 100%	≤ 50 nM
Cn1cc2c(n1)CN(CC1(CN[C@H]3CC3c3ccccc3)CC1)C2 (some centres unmarked) [Example 109]	–	–	≤ 50 nM
Cn1ncc2c1CN(CC1(CN[C@H]3CC3c3ccccc3)CC1)C2 (some centres unmarked) [Example 110]	–	–	≤ 50 nM
O=C(O)[C@H](Cc1ccccc1)NCC1(CN[C@@H]2C[C@H]2c2ccccc2)CC1 [Example 112]	–	–	100 to 500 nM
CN(C)[C@H]1CC[C@H](c2nc(C3(CN[C@@H]4C[C@H]4c4ccccc4)CC3)no2)CC1 [Example 115]	–	–	100 to 500 nM
c1ccc(C2C[C@@H]2NCC2(c3cccnc3)CCC2)cc1 (some centres unmarked) [Example 119]	–	–	≤ 50 nM
c1ccc(C2C[C@@H]2NCC2(c3ccccc3)CCCC2)cc1 (some centres unmarked) [Example 121]	–	–	≤ 50 nM
c1ccc(C2C[C@@H]2NCC2(c3ccccc3)CCC2)cc1 (some centres unmarked) [Example 122]	–	–	≤ 50 nM
Clc1ccc(C2(CN[C@H]3CC3c3ccccc3)CCC2)cc1 (some centres unmarked) [Example 123]	–	–	≤ 50 nM
c1ccc(C2C[C@@H]2NCC2(c3noc(-c4ccccn4)n3)CCC2)cc1 (some centres unmarked) [Example 125]	–	–	≤ 50 nM
FC(F)(F)c1ccnc(-c2nc(C3(CN[C@H]4CC4c4ccccc4)CCC3)no2)c1 (some centres unmarked) [Example 126]	–	–	≤ 50 nM
c1ccc([C@H]2C[C@@H]2NCC2(c3noc(-c4cncnc4)n3)CCC2)cc1 [Example 128]	–	–	50 to 100 nM
c1ccc(C2C[C@@H]2NCC2(c3noc(-c4cccnc4)n3)CCC2)cc1 (some centres unmarked) [Example 130]	–	–	≤ 50 nM
FC(F)(F)c1cc(-c2nc(C3(CN[C@H]4CC4c4ccccc4)CCC3)no2)ccn1 (some centres unmarked) [Example 131]	–	–	≤ 50 nM
O=C(O)c1ccccc1-c1nc(C2(CN[C@H]3C[C@@H]3c3ccccc3)CCC2)no1 [Example 134]	–	–	100 to 500 nM

Structure (SMILES)	IC50 [1]	Emax [1]	IC50 [2]
O=C(O)c1cccc(-c2nc(C3(CN[C@H]4CC4c4ccccc4)CCC3)no2)c1 (some centres unmarked) [Example 135]	–	–	100 to 500 nM
c1ccc(C2C[C@@H]2NCC2(c3noc(-c4ccc(-n5cnnc5)cc4)n3)CCC2)cc1 (some centres unmarked) [Example 136]	–	–	≤ 50 nM
c1ccc([C@H]2C[C@@H]2NCC2(c3cc([C@H]4CCCNC4)on3)CCC2)cc1 [Example 138]	–	–	50 to 100 nM
c1ccc([C@H]2C[C@@H]2NCC2(c3noc([C@@H]4CCCNC4)n3)CC2)cc1 [Example 139]	–	–	50 to 100 nM
N[C@H]1CCC[C@@H](c2nc(C3(CN[C@@H]4C[C@H]4c4ccccc4)CC3)no2)C1 [Example 148]	–	–	≤ 50 nM
O=C(O)[C@H]1C[C@@H](c2nc(C3(CN[C@@H]4C[C@H]4c4ccccc4)CC3)no2)C1 [Example 150]	–	–	≤ 50 nM
N[C@@H](Cc1nc(C2(CN[C@@H]3C[C@H]3c3ccccc3)CC2)no1)C(=O)O [Example 152]	–	–	100 to 500 nM
CC(C)[C@H](N)c1nc(C2(CN[C@@H]3C[C@H]3c3ccccc3)CC2)no1 [Example 154]	–	–	100 to 500 nM
NC1CCN(C(=O)c2nc(C3(CN[C@@H]4C[C@H]4c4ccccc4)CC3)no2)CC1 [Example 160]	–	–	≤ 50 nM
O=C(O)c1ccc(CN2CCC(Cc3nc(C4(CN[C@H]5CC5c5ccccc5)CC4)no3)CC2)cc1 (some centres unmarked) [Example 164]	–	–	≤ 50 nM
O=C(O)c1ccc(CN2CCC(c3nc(C4(CN[C@@H]5C[C@H]5c5ccccc5)CC4)no3)CC2)cc1 [Example 169]	–	–	50 to 100 nM
O=C(O)c1ccc(CN2CCC(c3nc(C4(CN[C@H]5C[C@@H]5c5ccccc5)CC4)no3)CC2)cc1 [Example 170]	–	–	100 to 500 nM
COC(=O)[C@H]1CC[C@H](c2nc(C3(CN[C@H]4C[C@@H]4c4ccccc4)CC3)no2)CC1 [Example 172]	–	–	≤ 50 nM
O=C(O)C1CC2(C1)CC(c1nc(C3(CN[C@H]4CC4c4ccccc4)CC3)no1)C2 (some centres unmarked) [Example 173]	–	–	100 to 500 nM
O=C(O)[C@H]1CC[C@@H](c2nc(C3(CN[C@H]4C[C@@H]4c4ccccc4)CC3)no2)CC1 [Example 175]	–	–	100 to 500 nM
O=C(O)C12CCC(c3nc(C4(CN[C@H]5C[C@@H]5c5ccccc5)CC4)no3)(CC1)CC2 [Example 177]	–	–	100 to 500 nM
O=C(O)c1ccc(-c2nc(C3(CN[C@H]4CC4c4ccccc4)CC3)no2)cc1 (some centres unmarked) [Example 181]	–	–	≤ 50 nM
Fc1ccccc1-c1nc(C2(CN[C@H]3CC3c3ccccc3)CC2)no1 (some centres unmarked) [Example 185]	–	–	≤ 50 nM
Cc1oc(C2(CN[C@H]3C[C@@H]3c3ccccc3)CCC2)nc1C(=O)O [Example 186]	–	–	100 to 500 nM
Fc1ccc(-c2nc(C3(CN[C@H]4CC4c4ccccc4)CCC3)no2)c(F)c1 (some centres unmarked) [Example 187]	–	–	≤ 50 nM
O=C(O)c1ccc(-c2nc(C3(CN[C@H]4CC4c4ccccc4)CCC3)no2)cc1 (some centres unmarked) [Example 188]	–	–	≤ 50 nM

Structure (SMILES)	IC50 [1]	Emax [1]	IC50 [2]
CC(C)Oc1ccc(-c2nc(C3(CN[C@H]4CC4c4ccccc4)CCC3)no2)cc1C#N (some centres unmarked) [Example 189]	–	–	≤ 50 nM
N#Cc1cc(F)cc(-c2nc(C3(CN[C@H]4CC4c4ccccc4)CCC3)no2)c1 (some centres unmarked) [Example 190]	–	–	≤ 50 nM
Fc1cc(F)c(-c2nc(C3(CN[C@H]4CC4c4ccccc4)CCC3)no2)c(F)c1 (some centres unmarked) [Example 191]	–	–	≤ 50 nM
Cc1sc(C2(CN[C@H]3CC3c3ccccc3)CCC2)nc1C(=O)O (some centres unmarked) [Example 194]	–	–	100 to 500 nM
O=C(O)c1ccc(CNC2(CN[C@H]3C[C@@H]3c3ccccc3)CC2)cc1 [Example 200]	–	–	100 to 500 nM
CC1(C)CCN(CC2(CN[C@H]3C[C@@H]3c3ccccc3)CC2)C1 [Example 202]	–	–	50 to 100 nM
O=C(O)c1ccc(CN2CC(c3nc(C4(CN[C@H]5C[C@@H]5c5ccccc5)CC4)no3)C2)cc1 [Example 205]	–	–	100 to 500 nM
N[C@H]1CC[C@@H](c2nc(C3(CN[C@@H]4C[C@H]4c4ccccc4)CCC3)no2)CC1 [Example 209]	–	–	≤ 50 nM
c1ccc([C@H]2C[C@@H]2NCC2(CN3CCC3)CC2)cc1 [Example 211]	–	–	50 to 100 nM
C[C@H]1CCCN1CC1(CN[C@H]2C[C@@H]2c2ccccc2)CC1 [Example 212]	–	–	100 to 500 nM
O=C(O)c1ccc(CN2CCC(c3nc(C4(CN[C@H]5C[C@@H]5c5ccccc5)CC4)no3)C2)cc1 (some centres unmarked) [Example 215]	–	–	100 to 500 nM
CN1CCC(c2nc(C3(CN[C@H]4C[C@@H]4c4ccccc4)CC3)no2)CC1=O (some centres unmarked) [Example 218]	–	–	100 to 500 nM
C[C@@H]1CN(CC2(CN[C@H]3CC3c3ccccc3)CC2)[C@@H](C)CN1C (some centres unmarked) [Example 221]	–	–	100 to 500 nM
O=C(O)[C@@H]1CCN1CC1(CN[C@@H]2C[C@H]2c2ccccc2)CC1 [Example 228]	–	–	100 to 500 nM
c1ccc([C@@H]2C[C@H]2NCC2(c3noc(C4CCNCC4)n3)CC2)cc1 [Example 231]	–	–	50 to 100 nM
NC[C@H]1CC[C@H](c2nc(C3(CN[C@@H]4C[C@H]4c4ccccc4)CC3)no2)CC1 [Example 239]	–	–	≤ 50 nM
N[C@H]1CC[C@H](Cc2nc(C3(CN[C@@H]4C[C@H]4c4ccccc4)CC3)no2)CC1 [Example 240]	–	–	50 to 100 nM
N[C@H]1CC[C@H](c2nnc(C3(CN[C@@H]4C[C@H]4c4ccccc4)CC3)o2)CC1 [Example 243]	–	–	100 to 500 nM
CC1(N)CCC(c2nc(C3(CN[C@@H]4C[C@H]4c4ccccc4)CC3)no2)CC1 (some centres unmarked) [Example 245]	–	–	≤ 50 nM
O=C(O)C1CCN(c2nc(C3(CN[C@@H]4C[C@H]4c4ccccc4)CC3)no2)CC1 [Example 253]	–	–	100 to 500 nM
C/C(=N\NC(=O)c1cccc(S(=O)(=O)N2CCOCC2)c1)c1cc(Cl)ccc1O [HCI-2509, reference compound]	–	–	≤ 50 nM
